“Also recorded” adds a separate entry of the source.

In assay [1] the test system is C15a. The assay is described as follows: Inhibition of virus binding and replication by preincubation with heparin, HS or glycans: C15a. The format is cell-based, rhinovirus C. The note with it: for inhibition of virus binding to HeLa-E8 cells: heparin or HS 1-2 mg/ml preincubation. Here is the method: (§1) FIGS. 4A-4E—Heparin and heparan sulfate effects. (A) Virus samples (5×10^5 PFUe) were incubated with heparin (2 mg/ml) or medium alone (no heparin) for 30 min at 34° C., before inoculation of HeLa-E8 cells. After an attachment period (30 min at room temp, 30 min at 34° C.) the cells were washed (3×PBS), harvested and tested by RT-qPCR for the attached virus RNA signals (means±s.d., n≥3). (*) indicates p<0.05 significance (t-test). (B) C15a and C15 K125 (5×10^5 PFUe) were incubated with heparin or heparan sulfate (1 mg/ml) as in A, before HeLa-E8 infections and virus binding assays. (C) The C15a experiment in A was repeated using different doses of heparin in the preincubation. (D) HeLa-E8 cells (12 well-plates) were treated (37° C., 2 h) with the indicated dose (U) of heparinase I before inoculation with C15a virus (5×10^5 PFUe) and tested for virus binding as in A. (E) C15a and recombinant C15 K125/K41 viruses (5×10^5 PFUe) were incubated with heparin (1 mg/ml, 30 min, 34° C.) before inoculation of HeLa-E8 or HeLa-H1 cells. After an attachment period (30 min at room temp, 30 min at 34° C.), the cells were washed with PBS (3×). Cells were harvested and assayed for the attached virus (1 h p.i.) and progeny virus (24 h p.i.) RNA signals by RT-qPCR (means±s.d., n=3).
FIGS. 9A-9B—Glycan effects on virus binding assays. (A) Recombinant C15 or (B) polyclonal C15a were incubated in media with the indicated sialylated glycans (1 mg/ml, see below) before being tested for binding to HeLa-E8 cells. Virus (5×10^5 PFUe) and glycan were mixed (30 min, 34° C.), then added to plated cells (30 min, room temp), before the samples were again incubated at 34° C. for an additional 30 min. The cells were washed (3×) before total RNA was extracted and assayed for C15 titer by RT-qPCR. For SNA and MALII samples, the cells, rather than virus were pretreated (100 μg/ml for 30 min, room temp) before the virus addition step. The plotted values are the averages of duplicate samples (n=2). Glycan reagents include: SLN 2-3 (3′-Sialy-N-acetyllactosamine, V-Labs, Inc), 1 mg/ml; SLN 2-6 (6′-Sialy-N-acetyllactosamine, V-Labs, Inc), 1 mg/ml; SLN 2-8 (Neu5Ac2-8Neu5Ac2-8Neu5Ac-sp-biotin, GlycoTech), 1 mg/ml; GlcNac 1-4 (GlcNAcb1-4GlcNAcb-sp-biotin, GlycoTech), 1 mg/ml; SNA (Sambucus Nigra Lectin, Vector Laboratories), 100 μg/ml; MAUI (Maackia Amurensis Lectin, Vector Laboratories), 100 μg/ml.
(§2) Purified virus (5×10^5 PFUe) was pre-incubated with tested compounds (sialic acid and sugar di- or trisaccharides, heparin or HS) for 30 min at 34° C. before inoculation of HeLa cell monolayers (30 min, room temp; 30 min, 34° C.). Cells were washed three times with PBS, lysed with the RLT buffer (Qiagen) and stored at −80° C. before total RNA extraction and RT-qPCR for C15. For SNA and MAUI samples, the cells, rather than virus were pretreated (100 μg/ml for 30 min, room temp) before the virus addition step. HeLa-E8 cells were washed with PBS containing 1 mM MgCl2 and 1 mM CaCl2 (PBS^++) and incubated for 2 hours at 37° C. with 2.5-10 U of heparinase I in PBS^++ before inoculation with purified virus (10^6 PFUe) for 1 hour at 34° C.

For the next assay, the system named is C15 K125. As to the kind of experiment: Inhibition of virus binding by preincubation with heparin or HS: C15 K125. The format is cell-based, rhinovirus C. The note with it: for inhibition of virus binding to HeLa-E8 cells: heparin or HS 1-2 mg/ml preincubation. Here is the method:
as §1, §2

For a further assay, the system named is recombinant C15 K125/K41. The assay is described as follows: Inhibition of virus binding and replication by preincubation with heparin: recombinant C15 K125/K41. The format is cell-based, rhinovirus C. The conditions noted are these: heparin 1 mg/ml. As for the experimental part: as §1, with “n=3). […]” for “n=3).”
Another assay has as its system A16. The assay is described as follows: Inhibition of virus binding by preincubation with heparin: A16. Type of assay: cell-based, RV-A. The note with it: heparin 2 mg/ml preincubation. As for the experimental part: as §1, with “n=3). […]” for “n=3).”
Another assay concerns unadapted C15 virus. As to the kind of experiment: Inhibition of virus binding by preincubation with heparin: unadapted C15. Type of assay: cell-based, rhinovirus C. The conditions noted are these: heparin 2 mg/ml preincubation. Here is the method:
as §1, with “n=3). […]” for “n=3).”

The next assay concerns Ala viruses. As to the kind of experiment: Inhibition of virus binding by preincubation with heparin: Ala. The format is cell-based. The note with it: heparin 2 mg/ml preincubation. As for the experimental part: as §1, with “n=3). […]” for “n=3).”
Another assay deals with RV-C15-K125. As to the kind of experiment: Heparinase I treatment, virus binding to HeLa-E8: RV-C15-K125. The format is cell-based, rhinovirus C. As for the experimental part:
as §2
Receptor specificity switch has been documented for some major receptor group RVs (e.g. RV-A89) that were adapted for growth in ICAM-1-deficient cells by serial or alternate passages in HEp-2 and HeLa cells (Reischl et al., 2001; Vlasak et al., 2005). A HEp-2-adapted RV-A89 variant can utilize HS proteoglycans as a cellular receptor (Vlasak et al., 2005). […] In contrast to RV-A89, RV-C15 adaptation by passaging in HeLa cells occurred in the absence of selective pressure for binding specificity change. This process has also been observed in some other picornaviruses and alphaviruses (Sa-Carvalho et al., 1997; Klimstra et al., 1998; Smit et al., 2002). […]

Assay [2] deals with C15a. As to the kind of experiment: Heparinase I pretreatment of HeLa-E8 cells, virus binding: C15a. Type of assay: cell-based, rhinovirus C. Here is the method:
as §1, with “n=3). […]” for “n=3).”

The mark [3] stands for this setting: heparin 2 mg/ml, 30 min 34° C. preincubation, 5×10^5 PFUe, HeLa-E8.

Turning to heparan sulfate [HS], the “inhibition of virus binding to HeLa-E8 cells” value (“inhibition of virus binding” for short) with C15a [1] and with C15 K125 was “had this effect; also recorded: inhibited” throughout.

Consider heparin, for which the “effect of heparin on binding and replication in HeLa-H1 cells” value with recombinant C15 K125/K41 (1 h and 24 h p.i.) was “abolished”; with C15a [1] (heparin 1 mg/ml, 1 h and 24 h p.i.), “abolished”. In addition, the “replication in HeLa-E8 cells despite the heparin treatment” value with recombinant C15 K125/K41 (24 h p.i.) is reported as “still replicated (to a degree)”; with C15a [1] (heparin 1 mg/ml, 24 h p.i.), “still replicated (to a degree)”. Also, the “effect of heparin on virus interaction with HeLa-E8 cells” value in the assay on A16, in the assay on unadapted C15 virus and in the assay with Ala viruses was “not affected” each time. In the assay with C15a [1] (different doses of heparin in the preincubation, HeLa-E8), the “dose dependence of inhibition of binding” value is recorded as “dependent upon the dose”. The “reduction of binding titer by heparin” value is 17 fold in the assay on C15a [1] (setting [3]) and 44 fold in the assay with C15 K125 (setting [3]). In addition, the “inhibition of virus binding” value in the assay with C15a [1] and in the assay with C15 K125 was “inhibited” throughout.

Turning to heparinase I, the “inhibition of virus binding” value with RV-C15-K125 and in the assay with C15a [2] (heparinase I treatment) was “inhibited” throughout. In addition, the “reduction of C15a binding after heparinase I pretreatment of HeLa-E8 cells” value in the assay with C15a [2] (2.5-10 U heparinase I, 37° C., 2 h) is reported as “more than 7 fold”.

(Values after patent US10253300B2, “Adapted rhinovirus C” (Wisconsin Alumni Research Foundation, priority 2015, dated 2019).)
